According to PubChem BioAssay AID248 (DTP/NCI, 2004):
Where “and” joins values, the source holds several entries; their conditions need not be identical. Identical values can stand only once. Inconclusive results and toxic doses are left out.

System: L1210 leukemia ip in BDF1 mice, survival T/C
Assay: NCI In Vivo Anticancer Drug Screen. Data for tumor model L1210 Leukemia (intraperitoneal) in B6D2F1 (BDF1) mice
Conditions: endpoint: mean survival time, higher = longer survival
Summary of the method: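 Value reflects the ratio of survival in compound-treated mice to survival in vehicle-treated controls, with both groups carrying the same transplanted tumor.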

[1] = dose: 100.0 mg/kg/injection, schedule: Q01DX001 (ip), vehicle: saline
[2] = dose: 100.0 mg/kg/injection, schedule: Q04DX002 (ip), vehicle: Klucel (hydroxypropylcellulose) (HPC)
[3] = dose: 200.0 mg/kg/injection, schedule: Q04DX002 (ip), vehicle: Klucel (hydroxypropylcellulose) (HPC)
[4] = dose: 25.0 mg/kg/injection, schedule: Q01DX009 (ip), vehicle: saline with Tween-80
[5] = dose: 100.0 mg/kg/injection, schedule: Q04DX003 (ip), vehicle: saline with Tween-80
[6] = dose: 200.0 mg/kg/injection, schedule: Q01DX001 (ip), vehicle: saline
[7] = dose: 400.0 mg/kg/injection, schedule: Q01DX001 (ip), vehicle: saline

Compound: COc1cc(OC)c(/C=C/c2ccc3ccccc3[n+]2[O-])c(OC)c1
- T/C (dose: 100.0 mg/kg/injection, schedule: Q04DX002 (ip), vehicle: gum acacia): 95 % of control
- T/C (dose: 200.0 mg/kg/injection, schedule: Q04DX002 (ip), vehicle: gum acacia): 95 % of control
- T/C (dose: 400.0 mg/kg/injection, schedule: Q04DX002 (ip), vehicle: gum acacia): 100 % of control

Compound: c1ccc2occc2c1
- T/C [1]: 103 % of control

Compound: CS(=O)(=O)OCCC(COS(C)(=O)=O)S(=O)(=O)Cc1ccccc1 (configuration not stated)
- T/C (dose: 15.0 mg/kg/injection, schedule: Q01DX001 (ip), vehicle: saline): 101 % of control
- T/C (dose: 30.0 mg/kg/injection, schedule: Q01DX001 (ip), vehicle: saline): 104 % of control

Compound: C#CCN(CC#C)CC#C
- T/C (dose: 25.0 mg/kg/injection, schedule: Q04DX003 (ip), vehicle: saline): 103 % of control
- T/C (dose: 50.0 mg/kg/injection, schedule: Q04DX003 (ip), vehicle: saline): 94 % of control

Compound: Nc1nc(N)c(CCCOc2ccccc2)c(-c2ccccc2)n1
- T/C [2]: 105 % of control
- T/C [3]: 101 % of control
- T/C (dose: 400.0 mg/kg/injection, schedule: Q04DX002 (ip), vehicle: Klucel (hydroxypropylcellulose) (HPC)): 101 % of control

Compound: Oc1c(-c2ccccc2)nn(O)c1-c1ccccc1
- T/C (dose: 50.0 mg/kg/injection, schedule: Q01DX009 (ip), vehicle: Klucel (hydroxypropylcellulose) (HPC)): 105 % of control

Compound: Cn1nc2ccccc2n1
- T/C [4]: 97 % of control
- T/C (dose: 50.0 mg/kg/injection, schedule: Q01DX009 (ip), vehicle: saline with Tween-80): 106 % of control
- T/C (dose: 100.0 mg/kg/injection, schedule: Q01DX009 (ip), vehicle: saline with Tween-80): 100 % of control
- T/C [5]: 116 % of control

Compound: NC(=O)N/N=C/c1[nH]c(=S)[nH]c(=O)c1Cc1ccccc1
- T/C [5]: 101 % of control
- T/C (dose: 200.0 mg/kg/injection, schedule: Q04DX003 (ip), vehicle: saline with Tween-80): 94 % of control
- T/C (dose: 400.0 mg/kg/injection, schedule: Q04DX003 (ip), vehicle: saline with Tween-80): 97 % of control

Compound: CC1(C)N=C(N)N=C(N)N1c1cccc(OCCOc2cccc(NC(=O)CBr)c2)c1
- T/C (dose: 5.0 mg/kg/injection, schedule: Q01DX001 (ip), vehicle: saline): 98 % of control
- T/C (dose: 10.0 mg/kg/injection, schedule: Q01DX001 (ip), vehicle: saline): 102 % of control
- T/C (dose: 10.0 mg/kg/injection, schedule: Q01DX009 (ip), vehicle: other): 105 % of control
- T/C (dose: 20.0 mg/kg/injection, schedule: Q01DX001 (ip), vehicle: saline): 93 % of control
- T/C (dose: 20.0 mg/kg/injection, schedule: Q01DX009 (ip), vehicle: other): 98 % of control
- T/C (dose: 40.0 mg/kg/injection, schedule: Q01DX001 (ip), vehicle: saline): 96 % of control

Compound: O=S(=O)(/N=[N+](\[O-])c1ccccc1)c1ccccc1
- T/C [1]: 103 % of control
- T/C [6]: 100 % of control
- T/C [7]: 103 % of control

Compound: COC(=O)C(C)NC(=O)C(COC1OC(COC(C)=O)C(OC(C)=O)C(OC(C)=O)C1NC(C)=O)NC(=O)OCc1ccccc1 (configuration not stated)
- T/C (dose: 50.0 mg/kg/injection, schedule: Q04DX002 (ip), vehicle: Klucel (hydroxypropylcellulose) (HPC)): 98 % of control
- T/C [2]: 91 % of control
- T/C [3]: 98 % of control

Compound: CC(C)(Br)CNC(=O)c1cccc([N+](=O)[O-])c1
- T/C (dose: 75.0 mg/kg/injection, schedule: Q01DX009 (ip), vehicle: Klucel (hydroxypropylcellulose) (HPC)): 103 % of control
- T/C (dose: 75.0 mg/kg/injection, schedule: Q04DX003 (ip), vehicle: Klucel (hydroxypropylcellulose) (HPC)): 95 % of control
- T/C (dose: 150.0 mg/kg/injection, schedule: Q01DX009 (ip), vehicle: Klucel (hydroxypropylcellulose) (HPC)): 101 % of control
- T/C (dose: 150.0 mg/kg/injection, schedule: Q04DX003 (ip), vehicle: Klucel (hydroxypropylcellulose) (HPC)): 97 % of control
- T/C (dose: 300.0 mg/kg/injection, schedule: Q01DX009 (ip), vehicle: Klucel (hydroxypropylcellulose) (HPC)): 86 % of control
- T/C (dose: 300.0 mg/kg/injection, schedule: Q04DX003 (ip), vehicle: Klucel (hydroxypropylcellulose) (HPC)): 92 % of control

Compound: CN(C)N=C1CCCC1
- T/C (dose: 50.0 mg/kg/injection, schedule: Q01DX009 (ip), vehicle: saline): 103 % of control
- T/C (dose: 100.0 mg/kg/injection, schedule: Q01DX009 (ip), vehicle: saline): 103 % of control

Compound: CSc1ncnc2nncnc12
- T/C (dose: 5.0 mg/kg/injection, schedule: Q01DX001 (ip), vehicle: other): 104 % of control
- T/C (dose: 10.0 mg/kg/injection, schedule: Q01DX001 (ip), vehicle: other): 106 % of control
- T/C (dose: 20.0 mg/kg/injection, schedule: Q01DX001 (ip), vehicle: other): 101 % of control
- T/C (dose: 40.0 mg/kg/injection, schedule: Q01DX001 (ip), vehicle: other): 98 % of control

Compound: Cc1c(NC(=O)Nc2ccccc2F)c(=O)n(-c2ccccc2)n1C
- T/C [1]: 101 % of control
- T/C (dose: 100.0 mg/kg/injection, schedule: Q01DX009 (ip), vehicle: acetone): 86 % of control
- T/C (dose: 100.0 mg/kg/injection, schedule: Q04DX003 (ip), vehicle: saline): 112 % of control
- T/C [6]: 95 % of control and 91 % of control
- T/C (dose: 200.0 mg/kg/injection, schedule: Q04DX003 (ip), vehicle: saline): 91 % of control
- T/C [7]: 97 % of control and 98 % of control
- T/C (dose: 400.0 mg/kg/injection, schedule: Q04DX003 (ip), vehicle: saline): 95 % of control

Compound: CNC(=N)c1ccc(NC(=N)c2ccc(NC(=N)c3ccc(NC(=O)Nc4ccc(C(=N)NC)cc4)cc3)cc2)cc1
- T/C (dose: 1.87 mg/kg/injection, schedule: Q01DX015 (ip), vehicle: water): 114 % of control
- T/C (dose: 3.0 mg/kg/injection, schedule: Q01DX015 (sc), vehicle: water): 103 % of control
- T/C (dose: 4.4 mg/kg/injection, schedule: Q01DX015 (sc), vehicle: water): 101 % of control
- T/C (dose: 6.7 mg/kg/injection, schedule: Q01DX015 (sc), vehicle: water): 103 % of control
- T/C (dose: 7.5 mg/kg/injection, schedule: Q01DX015 (ip), vehicle: water): 206 % of control
- T/C (dose: 15.0 mg/kg/injection, schedule: Q01DX015 (sc), vehicle: water): 206 % of control
- T/C (dose: 22.5 mg/kg/injection, schedule: Q01DX015 (sc), vehicle: water): 158 % of control

Compound: C1CNC(NC23CC4CC(CC(C4)C2)C3)=N1
- T/C (dose: 100.0 mg/kg/injection, schedule: Q01DX009 (ip), vehicle: Klucel (hydroxypropylcellulose) (HPC)): 98 % of control

Compound: CCCCCCCCCCCCOC(=O)C[n+]1cccc(C(=O)NCc2ccccc2)c1
- T/C (dose: 6.25 mg/kg/injection, schedule: Q01DX009 (ip), vehicle: saline with Tween-80): 98 % of control
- T/C (dose: 12.5 mg/kg/injection, schedule: Q01DX009 (ip), vehicle: saline with Tween-80): 94 % of control
- T/C [4]: 102 % of control

Compound: CC(C)(C)c1cc(C[N+](C)(C)C)cc(C(C)(C)C)n1
- T/C (dose: 50.0 mg/kg/injection, schedule: Q04DX002 (ip), vehicle: saline with Tween-80): 92 % of control
- T/C (dose: 100.0 mg/kg/injection, schedule: Q04DX002 (ip), vehicle: saline with Tween-80): 99 % of control

Compound: C[C@]12CC[C@H]3[C@@H](CCC4=CC(=O)CC[C@@]43CO)[C@@H]1CC[C@@H]2O
- T/C (dose: 50.0 mg/kg/injection, schedule: Q01DX001 (sc), vehicle: steriod suspending solution): 102 % of control
- T/C (dose: 100.0 mg/kg/injection, schedule: Q01DX001 (sc), vehicle: steriod suspending solution): 98 % of control
- T/C (dose: 200.0 mg/kg/injection, schedule: Q01DX001 (sc), vehicle: steriod suspending solution): 98 % of control
- T/C (dose: 400.0 mg/kg/injection, schedule: Q01DX001 (sc), vehicle: steriod suspending solution): 102 % of control

Compound: COC(=O)Nc1nc2cc(Cl)c(Cl)cc2[nH]1
- T/C (dose: 100.0 mg/kg/injection, schedule: Q01DX001 (ip), vehicle: carboxymethylcellulose (CMC)): 94 % of control
- T/C (dose: 200.0 mg/kg/injection, schedule: Q01DX001 (ip), vehicle: carboxymethylcellulose (CMC)): 100 % of control
- T/C (dose: 400.0 mg/kg/injection, schedule: Q01DX001 (ip), vehicle: carboxymethylcellulose (CMC)): 100 % of control

Compound: C=C[Si](C)(C=C)C=C
- T/C (dose: 100.0 mg/kg/injection, schedule: Q01DX005 (ip), vehicle: saline): 94 % of control
- T/C (dose: 200.0 mg/kg/injection, schedule: Q01DX005 (ip), vehicle: saline): 97 % of control
- T/C (dose: 400.0 mg/kg/injection, schedule: Q01DX005 (ip), vehicle: saline): 94 % of control

Compound: C=CCc1ccc(OCCOCCNC2CC3CCC2(C)C3(C)C)c(OC)c1 (configuration not stated)
- T/C (dose: 100.0 mg/kg/injection, schedule: Q04DX003 (ip), vehicle: Klucel (hydroxypropylcellulose) (HPC)): 89 % of control

Compound: Clc1ccc(C2NC(c3ccc(Cl)cc3)NC(c3ccc(Cl)cc3)N2)cc1 (configuration not stated)
- T/C (dose: 75.0 mg/kg/injection, schedule: Q01DX001 (ip), vehicle: saline): 95 % of control
- T/C (dose: 150.0 mg/kg/injection, schedule: Q01DX001 (ip), vehicle: saline): 95 % of control
- T/C (dose: 300.0 mg/kg/injection, schedule: Q01DX001 (ip), vehicle: saline): 90 % of control
